# Source: patent publication US4000262A, “5-Epi-amino and 5-epi-azido-4,6-di-O-(aminoglycosyl)-2,5-dideoxystreptamines 1-N-alkyl-5-epi-amino and 1-N-alkyl-5-epi-azido-4,6-di-O-(aminoglycosyl)-2,5-dideoxystreptamines” (priority 1975, dated 1976)
# Like-named read-outs stand apart in the source and are kept apart here.
# What was measured:
# [1] = tested on: gram positive bacteria and gram negative bacteria; assay: antibacterial activity (general statements, standard dilution tests); format: cell-based; conditions: gram negative organisms resistant to the 5-hydroxy precursors
# Streptococcus pyogenes C = assay: in vitro minimal inhibitory concentration, standard tube dilution method; format: cell-based
# Excerpt: In Table 1, set forth below is shown the in vitro minimal inhibitory concentration (MIC) of gentamicin C2a against representative gram-positive and gram-negative bacteria. The results are derived using the standard tube dilution method in Mueller-Hinton broth.
# In Table 2, set forth below is shown the in vitro minimal inhibitory concentration (MIC) of gentamicin C2b against representative gram-positive and gram-negative bacteria. The results are derived using the standard tube dilution method in Mueller-Hinton broth.
# [2] = tested on: gram-positive and gram-negative bacteria; assay: in vitro antibacterial spectrum / activity compared with gentamicin C components; format: cell-based; conditions: as the free base
# [3] = acute intravenous toxicity; conditions: mouse, in vivo, male CF-1 mice weighing 20 grams each
smiles,measurement,setting,value
CNC1C(O)C(OC2C(N)CC(N)C(OC3OC(CN)CCC3N)C2N)OCC1(C)O (stereo not drawn) [5-epi-amino-5-deoxygentamicin C1a],cidal activity,[1],cidal against certain gram negative organisms which are resistant to the 5-hydroxy precursors
CN[C@@H]1[C@@H](O)[C@@H](O[C@@H]2[C@@H](O)[C@H](O[C@H]3O[C@H]([C@H](C)N)CC[C@H]3N)[C@@H](N)C[C@H]2N)OC[C@]1(C)O [gentamicin C2a],MIC,Streptococcus pyogenes C,7.5 µg/mL
same,"activity relative to the gentamicin ""C"" complex",[2],about 74%
same,LD50,[3],110 mg/kg
CNC[C@@H]1CC[C@@H](N)[C@@H](O[C@H]2[C@H](O)[C@@H](O[C@H]3OC[C@](C)(O)[C@H](NC)[C@H]3O)[C@H](N)C[C@@H]2N)O1 [gentamicin C2b],MIC,"Streptococcus pyogenes C; Mueller-Hinton broth, read-out: MIC",3 µg/mL
